For one assay, the target named is T1, STAT5B NTD (Homo sapiens, UniProt P51692).
T1 construct: His-SUMO (N, cleaved yes); made in house; host or cells: E. coli BL21 RILP
T1 sequence (P51692 1-123): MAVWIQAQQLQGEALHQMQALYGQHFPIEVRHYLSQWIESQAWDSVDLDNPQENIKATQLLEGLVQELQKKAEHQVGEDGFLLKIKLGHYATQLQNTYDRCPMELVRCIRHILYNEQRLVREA
Kind of assay: Microscale thermophoresis (MST), without irradiation. The assay is classed as binding. Particulars: for ΔFnorm: Fnorm - Unbound value; for Fnorm: MST raw data; for Kd: MST, without irradiation, 25 °C. The protocol:
For the microscale thermophoresis (MST) studies, we prepared 16 two-fold serial dilutions of compounds starting from 500 μM. Titration series were prepared that contained 10 μL of compounds’ solutions of varying concentrations and 10 μL RED-NHS 2nd Generation labeled STAT5B NTD with a concentration of 168 nM for compound PhP097, and a concentration of 84 nM for compound PhP065. Final buffer composition included 1X PBS containing 0.5% DMSO. All measurements were taken in Premium Coated Capillaries on a Monolith NT.115 instrument (NanoTemper Technologies, Munich, Germany) using 80% infrared laser power for compound PhP097, 60% infrared laser power for compound PhP065, and an LED excitation source with λ = 650 nm at a temperature of 25 °C. Results were expressed as the mean of two separate experiments, with three technical replicates each. GraphPad Prism 9.5.1 software was used to fit the data and to determine the KD values.

In another assay the test system is MV4-11 cells. Nature of the assay: CellTiter-Blue cell viability assay, MV4-11. It is filed as cell-based. Particulars: Homo sapiens, MV4-11, 72 h. The protocol: (§1) MV4-11 and MOLM-13 cell lines were purchased from DSMZ (Braunschweig, Germany), and grown at 37 °C and 5% CO2 in RPMI 1640 medium (Gibco^TM, Thermo Fisher Scientific). Media were supplemented with 10% fetal calf serum (FCS), 10 U/mL penicillin, 10 µg/mL streptomycin and 2 mM L-glutamine (all Gibco^TM, Thermo Fisher Scientific).
(§2) To determine the IC50 of the selected compounds on the cell lines, CellTiter-Blue® cell viability assay (Promega) was performed. For this, cells were seeded in 96-well flat bottom plates at a cell density of 10,000 cells/well. Cells were treated in triplicates with the compound of interest at various concentrations or with 10 μM Bortezomib (S1013; Selleck Chemicals, Houston, TX, USA) as a positive control. Cell viability of treated cell lines was measured using CellTiter-Blue® after 72 h incubation. Plates were measured using a GloMax® plate reader (Promega) and IC50 values were determined by non-linear regression using the GraphPad Prism 9.1.1 (GraphPad Software, Inc.) and the data are reported as mean values ± SEM.

For another assay, the system named is MOLM-13 cells. Kind of assay: CellTiter-Blue cell viability assay, MOLM-13. To be noted: Homo sapiens, MOLM-13, 72 h. The assay is classed as cell-based. The method, then: as §1, §2
[1] abbreviates: Php065 concentration [log, µM] 0.290724, runs/replicates.
Where [2] appears, read: Php065 concentration [log, µM] 0.591766, runs/replicates.
The mark [3] stands for this setting: Php065 concentration [log, µM] 0.89279, runs/replicates.
[4] abbreviates: Php065 concentration [log, µM] 1.19382, runs/replicates.
The mark [5] stands for this setting: Php065 concentration [log, µM] 1.49485, runs/replicates.
Setting [6] is: Php065 concentration [log, µM] 1.79588, runs/replicates.
The mark [7] stands for this setting: Php065 concentration [log, µM] 2.09691, runs/replicates.
The mark [8] stands for this setting: Php065 concentration [log, µM] -0.0102833, runs/replicates.
Setting [9] is: Php065 concentration [log, µM] -0.612432, runs/replicates.
[10] abbreviates: Php065 concentration [log, µM] -1.21467, runs/replicates.

The record followed here is paper PMC11292009, “Mapping protein binding sites by photoreactive fragment pharmacophores” (Communications Chemistry, 2024).

Each structure is given as a SMILES string. “And” between values parts separate entries of the source, which are not always exact repeats. Identical values can stand only once.

As for `Cc1[nH]c2ccccc2c1SCCNC(=O)CCC1(C)N=N1` [PhP065, c1cccc(c12)c(c(C)[nH]2)SCCNC(=O)CCC3(C)N=N3], the ΔFnorm was 0.9086 ‰ and 1.12 ‰ and 1.315 ‰ and 0.6539 ‰ and 3.352 ‰ at STAT5B NTD (setting [1]); 1.904 ‰ and 1.964 ‰ and 2.239 ‰ and 1.873 ‰ and 1.543 ‰ at STAT5B NTD (setting [2]); 2.551 ‰ and 2.874 ‰ and 3.878 ‰ and 2.514 ‰ and 2.452 ‰ at STAT5B NTD (setting [3]); 2.441 ‰ and 3.584 ‰ and 3.84 ‰ and 4.085 ‰ and 3.441 ‰ on STAT5B NTD (setting [4]); 2.771 ‰ and 2.9356 ‰ and 3.692 ‰ and 3.134 ‰ and 1.982 ‰ at STAT5B NTD (setting [5]); 5.943 ‰ and 5.783 ‰ and 5.743 ‰ and 2.367 ‰ and 1.87 ‰ at STAT5B NTD (setting [6]). The ΔFnorm at STAT5B NTD (setting [7]) was 3.3934 ‰ and 3.578 ‰ and 3.242 ‰ and 3.625 ‰ and 1.481 ‰; on STAT5B NTD (setting [8]) it was -0.1141 ‰ and 1.411 ‰ and 0.9224 ‰ and 2.015 ‰ and 2.612 ‰; on STAT5B NTD (setting [9]) it was 0.5449 ‰ and 0.5795 ‰ and -0.1361 ‰ and -1.636 ‰ and -0.3141 ‰; at STAT5B NTD (setting [10]) it was -0.5121 ‰ and -0.1857 ‰ and -0.4698 ‰ and -1.614 ‰ and -1.146 ‰. For the same molecule, the Fnorm on STAT5B NTD (setting [1]) is 864.059 ‰ and 864.76 ‰ and 864.855 ‰ and 874.324 ‰ and 877.312 ‰; on STAT5B NTD (setting [2]), 865.054 ‰ and 865.604 ‰ and 865.779 ‰ and 875.543 ‰ and 875.503 ‰; at STAT5B NTD (setting [3]) it was 865.701 ‰ and 866.514 ‰ and 867.418 ‰ and 876.184 ‰ and 876.412 ‰; at STAT5B NTD (setting [4]) it was 865.591 ‰ and 867.224 ‰ and 867.38 ‰ and 877.755 ‰ and 877.401 ‰; at STAT5B NTD (setting [5]), 865.921 ‰ and 866.576 ‰ and 867.232 ‰ and 876.804 ‰ and 875.942 ‰; on STAT5B NTD (setting [6]), 869.093 ‰ and 869.423 ‰ and 869.283 ‰ and 876.037 ‰ and 875.83 ‰. Besides, the Fnorm was 866.543 ‰ and 867.218 ‰ and 866.782 ‰ and 877.295 ‰ and 875.441 ‰ on STAT5B NTD (setting [7]); 863.036 ‰ and 865.051 ‰ and 864.462 ‰ and 875.685 ‰ and 876.572 ‰ on STAT5B NTD (setting [8]); 863.695 ‰ and 864.219 ‰ and 863.404 ‰ and 872.034 ‰ and 873.646 ‰ on STAT5B NTD (setting [9]); 862.638 ‰ and 863.454 ‰ and 863.07 ‰ and 872.056 ‰ and 872.814 ‰ at STAT5B NTD (setting [10]). In addition, the affinity at STAT5B NTD, expressed as Kd, was 2.58 µM. In addition, the 50% inhibitory concentration (IC50) in the assay with MV4-11 cells amounted to 76.2 µM; with MOLM-13 cells it was 100 µM.

For the molecule `CC1(CCC(=O)NCCc2csc(-c3ccccc3)n2)N=N1` [PhP097, N1=NC1(C)CCC(=O)NCCc2csc(n2)-c3ccccc3], the ΔFnorm was 5.764 ‰ and 7.778 ‰ and 6.699 ‰ and -1.199 ‰ and -1.302 ‰ and -4.005 ‰ at STAT5B NTD (Php097 concentration [log, µM] 0.591766, runs/replicates); -7.395 ‰ and -5.5397 ‰ and -5.711 ‰ and 0.2163 ‰ and 4.053 ‰ and 0.9615 ‰ at STAT5B NTD (Php097 concentration [log, µM] 0.89279, runs/replicates); -4.091 ‰ and -1.8497 ‰ and -1.165 ‰ and -5.318 ‰ and -5.614 ‰ and -5.274 ‰ at STAT5B NTD (Php097 concentration [log, µM] 1.19382, runs/replicates); -4.445 ‰ and -4.535 ‰ and -5.873 ‰ and -8.126 ‰ and -4.727 ‰ and -7.108 ‰ on STAT5B NTD (Php097 concentration [log, µM] 1.49485, runs/replicates); -8.587 ‰ and -6.363 ‰ and -6.457 ‰ and -11.6433 ‰ and -8.368 ‰ and -12.1062 ‰ on STAT5B NTD (Php097 concentration [log, µM] 1.79588, runs/replicates); -14.77 ‰ and -11.6203 ‰ and -10.8651 ‰ and -10.9408 ‰ and -5.699 ‰ and -12.7461 ‰ at STAT5B NTD (Php097 concentration [log, µM] 2.09691, runs/replicates). Also, the ΔFnorm was -1.7884 ‰ and 0.2047 ‰ and 0.7983 ‰ and -10.6185 ‰ and -13.0284 ‰ and -12.5258 ‰ at STAT5B NTD (Php097 concentration [log, µM] 2.39794, runs/replicates); 4.6455 ‰ and 5.66 ‰ and 7.637 ‰ and -9.481 ‰ and -8.884 ‰ and -7.417 ‰ at STAT5B NTD (Php097 concentration [log, µM] -0.0102833, runs/replicates); -5.603 ‰ and -3.243 ‰ and -1.459 ‰ and 3.271 ‰ and 2.052 ‰ and 1.015 ‰ at STAT5B NTD (Php097 concentration [log, µM] -0.311313, runs/replicates); 4.1952 ‰ and 9.04 ‰ and 7.8226 ‰ and -0.03038 ‰ and -2.726 ‰ and -0.9924 ‰ on STAT5B NTD (Php097 concentration [log, µM] -0.913284, runs/replicates); 0.7011 ‰ and -0.01526 ‰ and 1.427 ‰ and -0.3532 ‰ at STAT5B NTD (Php097 concentration [log, µM] -1.5157, runs/replicates). The Fnorm was 720.204 ‰ and 719.528 ‰ and 720.009 ‰ and 710.951 ‰ and 712.028 ‰ and 710.045 ‰ at STAT5B NTD (PhP097 concentration [log, µM] 0.591766, runs/replicates); 707.045 ‰ and 706.21 ‰ and 707.599 ‰ and 712.366 ‰ and 717.383 ‰ and 715.011 ‰ at STAT5B NTD (PhP097 concentration [log, µM] 0.89279, runs/replicates); 719.086 ‰ and 717.41 ‰ and 720.947 ‰ and 702.669 ‰ and 704.446 ‰ and 706.633 ‰ at STAT5B NTD (PhP097 concentration [log, µM] -0.0102833, runs/replicates); 708.837 ‰ and 708.507 ‰ and 711.851 ‰ and 715.421 ‰ and 715.382 ‰ and 715.065 ‰ on STAT5B NTD (PhP097 concentration [log, µM] -0.311313, runs/replicates); 718.635 ‰ and 720.79 ‰ and 721.133 ‰ and 712.12 ‰ and 710.604 ‰ and 713.058 ‰ on STAT5B NTD (PhP097 concentration [log, µM] -0.913284, runs/replicates); 715.141 ‰ and 711.735 ‰ and 714.737 ‰ and 711.797 ‰ and 713.155 ‰ and 719.464 ‰ at STAT5B NTD (PhP097 concentration [log, µM] -1.5157, runs/replicates). Further, at STAT5B NTD, binding was characterised by a dissociation constant (Kd) of 18.1 µM. Also, the values for the IC50 in the assay on MV4-11 cells and with MOLM-13 cells were 56.6 µM and 68.2 µM, respectively.
